Literature values as cited in patent US9314478B2, “Method of making an anhydrous, fat soluble, chewable drug delivery formulation” (Argenta Manufacturing Limited, priority 2013, dated 2016).

Molecule | Aqueous solubility
CC(C(=O)O)c1ccc2c(c1)[nH]c1ccc(Cl)cc12 (stereo not shown) [Carprofen] | Poor
Cc1cnc(NC(=O)C2=C(O)c3ccccc3S(=O)(=O)N2C)s1 [Meloxicam] | Poor
CCCOc1ccc2nc(NC(=O)OC)[nH]c2c1 [Oxibendazole] | Poor
O=C(C1CCCCC1)N1CC(=O)N2CCc3ccccc3C2C1 (stereo not shown) [Praziquantel] | Soluble
CN1CCCN=C1/C=C/c1cccs1 [Pyrantel] | Poor
Milbemycin oxime | Poor
Spinosad | Soluble
